Results taken from ChEMBL document CHEMBL1142214, “Synergistic interaction between phenothiazines and antimicrobial agents against Burkholderia pseudomallei” (2007).
Values after ≈ are worked out from the molar mass of the structure shown.

Columns and labels:
Type in all cases: functional
[1] = test system: Burkholderia pseudomallei; assay: Antimicrobial activity against Burkholderia pseudomallei KHW in presence of 15.6 uM omeprazole
[2] = test system: Burkholderia pseudomallei; assay: Antimicrobial activity against Burkholderia pseudomallei KHW in presence of 31.3 uM prochlorperazine
[3] = test system: Burkholderia pseudomallei; assay: Antimicrobial activity against Burkholderia pseudomallei KHW in presence of 15.6 uM prochlorperazine
[4] = test system: Burkholderia pseudomallei; assay: Antimicrobial activity against Burkholderia pseudomallei KHW in presence of 7.8 uM prochlorperazine
[5] = test system: Burkholderia pseudomallei; assay: Antimicrobial activity against Burkholderia pseudomallei KHW in presence of 3.9 uM prochlorperazine
[6] = test system: Burkholderia pseudomallei; assay: Antimicrobial activity against Burkholderia pseudomallei KHW in presence of 1000 uM promazine
[7] = test system: Burkholderia pseudomallei; assay: Antimicrobial activity against Burkholderia pseudomallei KHW in presence of 125 uM promazine
[8] = test system: Burkholderia pseudomallei; assay: Antimicrobial activity against Burkholderia pseudomallei KHW in presence of 62.5 uM promazine
[9] = test system: Burkholderia pseudomallei; assay: Antimicrobial activity against Burkholderia pseudomallei KHW in presence of 31.3 uM promazine
[10] = test system: Burkholderia pseudomallei; assay: Antimicrobial activity against Burkholderia pseudomallei KHW in presence of 15.6 uM promazine
[11] = test system: Burkholderia pseudomallei; assay: Antimicrobial activity against Burkholderia pseudomallei KHW in presence of 7.8 uM promazine
[12] = test system: Burkholderia pseudomallei; assay: Antimicrobial activity against Burkholderia pseudomallei KHW in presence of 3.9 uM promazine
[13] = test system: Burkholderia pseudomallei; assay: Antimicrobial activity against Burkholderia pseudomallei KHW in presence of 1000 uM omeprazole
[14] = test system: Burkholderia pseudomallei; assay: Antimicrobial activity against Burkholderia pseudomallei KHW in presence of 125 uM omeprazole
[15] = test system: Burkholderia pseudomallei; assay: Antimicrobial activity against Burkholderia pseudomallei KHW in presence of 62.5 uM omeprazole
[16] = test system: Burkholderia pseudomallei; assay: Antimicrobial activity against Burkholderia pseudomallei KHW in presence of 31.3 uM omeprazole
[17] = test system: Burkholderia pseudomallei; assay: Antimicrobial activity against Burkholderia pseudomallei KHW in presence of 7.8 uM omeprazole
[18] = test system: Burkholderia pseudomallei; assay: Antimicrobial activity against Burkholderia pseudomallei KHW in presence of 3.9 uM omeprazole
[19] = test system: Burkholderia pseudomallei; assay: Antimicrobial activity against Burkholderia pseudomallei KHW in presence of 1000 uM chlorpromazine
[20] = test system: Burkholderia pseudomallei; assay: Antimicrobial activity against Burkholderia pseudomallei KHW
[21] = test system: Burkholderia pseudomallei; assay: Antimicrobial activity against Burkholderia pseudomallei KHW in presence of 1000 uM prochlorperazine
[22] = test system: Burkholderia pseudomallei; assay: Antimicrobial activity against Burkholderia pseudomallei KHW in presence of 500 uM prochlorperazine
[23] = test system: Burkholderia pseudomallei; assay: Antimicrobial activity against Burkholderia pseudomallei KHW in presence of 250 uM prochlorperazine
[24] = test system: Burkholderia pseudomallei; assay: Antimicrobial activity against Burkholderia pseudomallei KHW in presence of 125 uM prochlorperazine
[25] = test system: Burkholderia pseudomallei; assay: Antimicrobial activity against Burkholderia pseudomallei KHW in presence of 62.5 uM prochlorperazine
[26] = test system: Burkholderia pseudomallei; assay: Antimicrobial activity against Burkholderia pseudomallei KHW in presence of 500 uM chlorpromazine
[27] = test system: Burkholderia pseudomallei; assay: Antimicrobial activity against Burkholderia pseudomallei KHW in presence of 250 uM chlorpromazine
[28] = test system: Burkholderia pseudomallei; assay: Antimicrobial activity against Burkholderia pseudomallei KHW in presence of 125 uM chlorpromazine
[29] = test system: Burkholderia pseudomallei; assay: Antimicrobial activity against Burkholderia pseudomallei KHW in presence of 62.5 uM chlorpromazine
[30] = test system: Burkholderia pseudomallei; assay: Antimicrobial activity against Burkholderia pseudomallei KHW in presence of 31.3 uM chlorpromazine
[31] = test system: Burkholderia pseudomallei; assay: Antimicrobial activity against Burkholderia pseudomallei KHW in presence of 15.6 uM chlorpromazine
[32] = test system: Burkholderia pseudomallei; assay: Antimicrobial activity against Burkholderia pseudomallei KHW in presence of 7.8 uM chlorpromazine
[33] = test system: Burkholderia pseudomallei; assay: Antimicrobial activity against Burkholderia pseudomallei KHW in presence of 3.9 uM chlorpromazine
[34] = test system: Burkholderia pseudomallei; assay: Antimicrobial activity against Burkholderia pseudomallei KHW in presence of 250 uM promazine
[35] = test system: Burkholderia pseudomallei; assay: Antimicrobial activity against Burkholderia pseudomallei KHW in presence of 500 uM omeprazole
[36] = test system: Burkholderia pseudomallei; assay: Antimicrobial activity against Burkholderia pseudomallei KHW in presence of 250 uM omeprazole
[37] = test system: Burkholderia pseudomallei; assay: Antimicrobial activity against Burkholderia pseudomallei KHW in presence of 500 uM promazine

SMILES | MIC [1] | MIC [2] | MIC [3] | MIC [4] | MIC [5] | MIC [6] | MIC [7] | MIC [8] | MIC [9] | MIC [10] | MIC [11] | MIC [12] | MIC [14] | MIC [15] | MIC [16] | MIC [17] | MIC [18] | MIC [19] | MIC [20] | MIC [21] | also measured
CN[C@@H]1[C@H](O)[C@H](NC)[C@H]2O[C@@]3(O)C(=O)C[C@@H](C)O[C@H]3O[C@@H]2[C@H]1O [SPECTINOMYCIN] | 256 µg/mL | 256 µg/mL | 256 µg/mL | 256 µg/mL | 256 µg/mL | < 0.25 µg/mL | 256 µg/mL | 256 µg/mL | 256 µg/mL | 256 µg/mL | 256 µg/mL | 256 µg/mL | 256 µg/mL | 256 µg/mL | 256 µg/mL | 256 µg/mL | 256 µg/mL | < 0.25 µg/mL | 256 µg/mL (≈ 770 µM) | < 0.25 µg/mL | MIC [13]: 32 µg/mL; MIC [22]: < 0.25 µg/mL; MIC [23]: 32 µg/mL; MIC [24]: 32 µg/mL; MIC [25]: 128 µg/mL; MIC [26]: 32 µg/mL; MIC [27]: 128 µg/mL; MIC [28]: 256 µg/mL; MIC [29]: 256 µg/mL; MIC [30]: 256 µg/mL; MIC [31]: 256 µg/mL; MIC [32]: 256 µg/mL; MIC [33]: 256 µg/mL
C[C@H]1COc2c(N3CCN(C)CC3)c(F)cc3c(=O)c(C(=O)O)cn1c23.C[C@H]1COc2c(N3CCN(C)CC3)c(F)cc3c(=O)c(C(=O)O)cn1c23.O [LEVOFLOXACIN] | 2 µg/mL | 2 µg/mL | 2 µg/mL | 2 µg/mL | 2 µg/mL | < 0.25 µg/mL | 2 µg/mL | 2 µg/mL | 2 µg/mL | 2 µg/mL | 2 µg/mL | 2 µg/mL | 2 µg/mL | 2 µg/mL | 2 µg/mL | 2 µg/mL | 2 µg/mL | < 0.25 µg/mL | 2 µg/mL | < 0.25 µg/mL | MIC [34]: 2 µg/mL; MIC [35]: 2 µg/mL; MIC [36]: 2 µg/mL; MIC [22]: < 0.25 µg/mL; MIC [23]: 2 µg/mL; MIC [24]: 2 µg/mL; MIC [25]: 2 µg/mL; MIC [26]: < 0.25 µg/mL; MIC [28]: 2 µg/mL; MIC [29]: 2 µg/mL; MIC [30]: 2 µg/mL; MIC [31]: 2 µg/mL; MIC [32]: 2 µg/mL; MIC [33]: 2 µg/mL
CC[C@H]1OC(=O)[C@H](C)[C@@H](O[C@H]2C[C@@](C)(OC)[C@@H](O)[C@H](C)O2)[C@H](C)[C@@H](O[C@@H]2O[C@H](C)C[C@H](N(C)C)[C@H]2O)[C@](C)(O)C[C@@H](C)CN(C)[C@H](C)[C@@H](O)[C@]1(C)O [AZITHROMYCIN] | 32 µg/mL | 32 µg/mL | 32 µg/mL | 32 µg/mL | 32 µg/mL | < 0.25 µg/mL | 32 µg/mL | 32 µg/mL | 32 µg/mL | 32 µg/mL | 32 µg/mL | 32 µg/mL | 32 µg/mL | 32 µg/mL | 32 µg/mL | 32 µg/mL | 32 µg/mL | < 0.25 µg/mL | 32 µg/mL (≈ 42.7 µM) | < 0.25 µg/mL | MIC [37]: 16 µg/mL; MIC [34]: 32 µg/mL; MIC [13]: 16 µg/mL; MIC [35]: 16 µg/mL; MIC [36]: 32 µg/mL; MIC [22]: < 0.25 µg/mL; MIC [23]: < 0.25 µg/mL; MIC [24]: 16 µg/mL; MIC [25]: 32 µg/mL; MIC [26]: 8 µg/mL; MIC [27]: 16 µg/mL; MIC [28]: 16 µg/mL; MIC [29]: 32 µg/mL; MIC [30]: 32 µg/mL; MIC [31]: 32 µg/mL; MIC [32]: 32 µg/mL; MIC [33]: 32 µg/mL
CO[C@H]1C[C@H](O[C@H]2[C@H](C)[C@@H](O[C@@H]3O[C@H](C)C[C@H](N(C)C)[C@H]3O)[C@@H](C)C[C@@]3(CO3)C(=O)[C@H](C)[C@@H](O)[C@@H](C)[C@@H](C)OC(=O)[C@@H]2C)O[C@@H](C)[C@@H]1O [OLEANDOMYCIN] | > 2000 µg/mL | 512 µg/mL | 512 µg/mL | > 2000 µg/mL | > 2000 µg/mL | 0.5 µg/mL | > 2000 µg/mL | > 2000 µg/mL | > 2000 µg/mL | > 2000 µg/mL | > 2000 µg/mL | > 2000 µg/mL | > 2000 µg/mL | > 2000 µg/mL | > 2000 µg/mL | > 2000 µg/mL | > 2000 µg/mL | < 0.25 µg/mL | > 2000 µg/mL | 64 µg/mL | MIC [37]: 256 µg/mL; MIC [34]: > 2000 µg/mL; MIC [13]: < 0.25 µg/mL; MIC [35]: > 2000 µg/mL; MIC [36]: > 2000 µg/mL; MIC [22]: 64 µg/mL; MIC [23]: 128 µg/mL; MIC [24]: 256 µg/mL; MIC [25]: 256 µg/mL; MIC [26]: 128 µg/mL; MIC [27]: 256 µg/mL; MIC [28]: 512 µg/mL; MIC [29]: 1020 µg/mL; MIC [30]: > 2000 µg/mL; MIC [31]: > 2000 µg/mL; MIC [32]: > 2000 µg/mL; MIC [33]: > 2000 µg/mL
CN[C@@H]1[C@H](O[C@H]2[C@H](O[C@H]3[C@H](O)[C@@H](O)[C@H](N=C(N)N)[C@@H](O)[C@@H]3N=C(N)N)O[C@@H](C)[C@]2(O)C=O)O[C@@H](CO)[C@H](O)[C@H]1O [STREPTOMYCIN] | 1020 µg/mL | 1020 µg/mL | 1020 µg/mL | 1020 µg/mL | 1020 µg/mL | 0.5 µg/mL | 1020 µg/mL | 1020 µg/mL | 1020 µg/mL | 1020 µg/mL | 1020 µg/mL | 1020 µg/mL | 1020 µg/mL | 1020 µg/mL | 1020 µg/mL | 1020 µg/mL | 1020 µg/mL | < 0.25 µg/mL | 1020 µg/mL (≈ 1760 µM) | 256 µg/mL | MIC [37]: 516 µg/mL; MIC [34]: 1020 µg/mL; MIC [13]: < 0.25 µg/mL; MIC [35]: 1020 µg/mL; MIC [36]: 1020 µg/mL; MIC [22]: 256 µg/mL; MIC [23]: 512 µg/mL; MIC [24]: 1020 µg/mL; MIC [25]: 1020 µg/mL; MIC [26]: < 0.25 µg/mL; MIC [27]: 1020 µg/mL; MIC [28]: 1020 µg/mL; MIC [29]: 1020 µg/mL; MIC [30]: 1020 µg/mL; MIC [31]: 1020 µg/mL; MIC [32]: 1020 µg/mL; MIC [33]: 1020 µg/mL
